Here are results for 14 compounds from paper PMC8355244, “A fragment-based approach identifies an allosteric pocket that impacts malate dehydrogenase activity” (Communications Biology, 2021).

Values joined by “and” are separate entries in the source; they are usually repeats but may differ in a detail not shown here. Identical values can stand only once. Like-named read-outs stand apart in the source and are kept apart here.

In data set [1] the target is T1, PfMDH (Plasmodium falciparum, UniProt Q6VVP7).
T1 construct: The full-length WT PfMDH gene was cloned into pETM-13; made in house; host or cells: E. coli Rosetta 2 (DE3) pLysS
T1 sequence (Q6VVP7 entry or part of it): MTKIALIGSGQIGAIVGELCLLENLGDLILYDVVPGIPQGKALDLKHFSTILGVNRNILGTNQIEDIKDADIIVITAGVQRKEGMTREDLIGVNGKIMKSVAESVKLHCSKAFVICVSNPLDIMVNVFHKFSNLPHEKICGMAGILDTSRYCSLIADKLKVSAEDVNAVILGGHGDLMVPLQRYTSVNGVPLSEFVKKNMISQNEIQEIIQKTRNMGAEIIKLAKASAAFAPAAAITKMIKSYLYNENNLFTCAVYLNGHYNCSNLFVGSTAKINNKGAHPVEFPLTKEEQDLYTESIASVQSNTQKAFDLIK
Description: Thermal shift assay (TSA). The data set is classed as binding. Here is the method: The TSA experiment was conducted in a BioRad CSX 96 (Biorad). Each reaction consisted of 1 mM of compound (100 mM stock in 100% (v/v) DMSO) and 10 μM PfMDH in 100 mM Na–phosphate buffer pH 7.4, 400 mM NaCl, and 10× Sypro Orange (Invitrogen) for a total volume of 100 μl. Control experiments were performed with 1% (v/v) DMSO. Inflection points were determined using BioRad CFX96™ control software. Generally, a temperature increase of over 1 °C is interpreted as a result of the stabilization of the protein-ligand interaction. On the contrary, a negative shift is considered a destabilization caused by the fragment.

Data set [2] can be described thus: Precipitation / turbidity of compound in assay buffer (600 nm). The class given is physicochemical. Particulars: activity screening buffer, 500 µM. Here is the method:
1.3 µL of derivatives of 4-phenylthiazol-2-amine in 100% DMSO were mixed with 237.7 µL of a mastermix of WT PfMDH previously incubated with NAD+. The final compound concentration used in this screening was 500 µM in the presence of 0.5% (v/v) DMSO. The microplate was sealed with silver foil for 1-h incubation at 25–35 °C. Finally, reactions in both the samples and control wells were started upon the addition of 13.0 µL of 5 mM malate). At the end of the experiments, the reaction of the plate was spectrophotometrically assayed at 600 nm in order to identify turbidity due to the low solubility of the compound. All measurements were performed in duplicate.

The target in data set [3] is T1, PfMDH. The note with it: Supplementary Table 2; ref 10.1021/jm070336k; cited from earlier work.
The test system of the next data set is HsMDH2. The note with it: Supplementary Table 1, cited from earlier work.
A further data set has as its system HsMDH1. On the set-up: method as in earlier work. The note with it: Supplementary Table 1; ref 10.1021/acs.jmedchem.7b01231; cited from earlier work.
The target in data set [4] is T1, PfMDH. Description: Dynamic light scattering (DLS), aggregation. Particulars: PfMDH samples incubated with compound. The procedure: Measurements were performed on Litesizer 500 (Anton Paar). Samples were incubated with the highest concentrations of compounds for 2 h at room temperature. Prior to measurements, samples were spun for 5 min at 16,000 rpm (Eppendorf Centrifuge 5415R) to remove aggregates.

In data set [5] the target is T1, PfMDH. Description: Small-angle X-ray scattering (SAXS) of PfMDH with compounds. The note with it: 1 mM compound; for radius of gyration Rg of PfMDH in complex: apo PfMDH 33.78 ± 5.51. Here is the method: X-ray scattering experiments were performed using the laboratory SAXS system Xeuss 2.0 (XENOCS, Grenoble, France) equipped with a MetalJet D2 microfocus X-ray generator (0.134 nm wavelength). The protein solution at a concentration of 2.49 mg ml^−1 was mixed with 4PA derivatives at a concentration of 1 mM, incubated for 1 h at room temperature, and spun at 16,000 rpm (Eppendorf Centrifuge 5415R) to remove any potential aggregates prior to injection into the low-noise liquid sample cell. SAXS data were collected in 3–4 subsequent 10 min long frames using a Pilatus3R 1 M hybrid photon counting detector (Dectris, Switzerland). Data reduction and buffer subtraction procedures were performed using the Foxtrot package. Scattering profiles were assessed for radiation-damaged and averaged. Structural parameters were calculated in Primus from the ATSAS package. The distance distribution function was calculated using GNOM[58].

In a further data set the test system is MDH. The note with it: cited from earlier work.
[6] abbreviates: ref 10.1021/acs.jmedchem.7b01231.

“4-(3-(trifluoromethyl)phenyl)thiazol-2-amine [compound 8a]”: at PfMDH [1] (1 mM compound vs DMSO control), the ΔTm was −10 °C. On PfMDH [1] (1 mM compound, 10 μM PfMDH, DMSO control Tm 58), the Tm stood at 48.0 ± 1.0 °C. The “precipitation of compound in the buffer” value in data set [2] was “precipitation of compound was observed”. With `O=C(O)C(=O)Nc1ccc(CCOc2cc(O)c3c(=O)cc(C(=O)O)oc3c2)cc1` [Inhibitor 2], at PfMDH [3], the concentration for half-maximal inhibition (IC50) is over 241 µM. For `COc1cc(CCOc2cc(O)c3c(=O)cc(C(=O)O)oc3c2)ccc1NC(=O)C(=O)O` [Inhibitor 4], the IC50 at PfMDH [3] is over 225 µM.

Turning to `O=C1Cc2c([nH]c3ccc(Br)cc23)-c2ccccc2N1Cc1ccc(Cl)c(Cl)c1` [Inhibitor 4h], the IC50 in the data set on HsMDH2 (ref 10.1016/j.ejmech.2009.10.018) was 1.1 ± 0.1 µM. Turning to `COc1ccc(CNC(=O)c2cc(=O)c3c(O)cc(OCCc4ccc(NC(=O)C(=O)O)c(OC)c4)cc3o2)cc1` [Inhibitor 7], the 50% inhibitory concentration (IC50) at PfMDH [3] is 2.66 ± 0.24 µM. Consider `COC(=O)c1cccc(NC(=O)CCCOc2ccc(C(C)(C)CC(C)(C)C)cc2)c1` [Inhibitor 14b], for which the half-inhibitory concentration (IC50) in the data set on HsMDH1 was 1.18 ± 0.08 µM; with HsMDH2 (setting [6]), 1.11 ± 0.01 µM. For `COC(=O)c1ccc(O)c(NC(=O)CCCOc2ccc(C(C)(C)CC(C)(C)C)cc2)c1` [Inhibitor 14c], in the data set with HsMDH2 (setting [6]), the IC50 was 1.11 ± 0.01 µM. Consider `COC(=O)c1cccc(NC(=O)CCOc2ccc(C(C)(C)CC(C)(C)C)cc2)c1` [Inhibitor 16c], for which the concentration for half-maximal inhibition (IC50) is 1.07 ± 0.07 µM in the data set with HsMDH1 and 1.06 ± 0.03 µM in the data set with HsMDH2 (setting [6]). As for `NC(=O)C(=O)O` [Oxamate], the IC50 at PfMDH [3] was over 2000 µM.

Take `Nc1nc(-c2ccc([N+](=O)[O-])cc2)cs1` [compound 2a]: the “aggregation in DLS” value on PfMDH [4] is recorded as “no aggregation in DLS”. Besides, the “radius of gyration Rg of PfMDH in complex” value at PfMDH [5] was 33.78 ± 0.83 Å and 33.8 Å. The “precipitation of compound in the buffer” value in data set [2] is given as “precipitation of compound was observed”. Consider `Nc1nc(-c2ccc(Br)cc2)cs1` [compound 6a], for which the “aggregation in DLS” value at PfMDH [4] is on record as “no aggregation in DLS”. Moreover, the “Rg from Dmax analysis” value on PfMDH [5] (apo 33.93 ± 4) is listed as 34.52 ± 4.3 Å. Moreover, at PfMDH [5] (apo 104.75), the Dmax came to 113.74 Å. On PfMDH [5] (apo 113.65), the “MW estimate of PfMDH complex” value is recorded as 91.175 kDa. At PfMDH [5], the “radius of gyration Rg of PfMDH in complex” value was 36.4 ± 3.15 Å and 36.4 Å. For the same compound, the “precipitation of compound in the buffer” value in data set [2] is “precipitation of compound was observed”. For `CC(C)c1ccc(-c2csc(N)n2)cc1` [compound 10a], the “precipitation of compound in the buffer” value in data set [2] is recorded as “precipitation of compound was observed”. On to `O=c1c(O)c(-c2ccc(O)c(O)c2)oc2cc(O)cc(O)c12` [quercetin], for which the IC50 with MDH is 6 µM. In the case of `CC(=O)c1c(O)c(C)c(O)c(Cc2c(O)c3c(c(C(=O)/C=C/c4ccccc4)c2O)OC(C)(C)C=C3)c1O` [rottlerin], the IC50 in the data set with MDH was 0.7 µM.

In general, ΔTm refers to the shift of the melting midpoint relative to a reference. Broadly, the Tm is the temperature at which the thermal transition is half complete. One may read the IC50 as the midpoint of a concentration-inhibition curve.
